From US20230293469A1, “NOVEL PHARMACEUTICAL COMPOSITIONS” (NEUROPRO THERAPEUTICS, INC., priority 2020, published 2023)

What was measured:
[1] = Oral dose PK of NPT2042 in dog (AUC for absolute bioavailability); format: in vivo; conditions: dog
Experimental: Assays were performed to determine absolute bioavailability of NPT2042 in two species: dog and rat. The calculation of absolute bioavailability depends on four inputs: the areas under the curves (AUC) for oral and IV, and the oral and IV doses.
Testing was conducted to determine AUCs for an oral dose in dog.
Two dogs were each dosed 30 mg/kg NPT2042 orally, on two different days.

[2] = system: Rat Microsomes; experiment: Metabolite screening of NPT-2042 in rat microsomes; format: in vitro ADME; conditions: NPT-2042 10 uM, microsomes 1 mg/mL, 1 hour, NADPH regenerating system
Experimental: (§1) Incubation of Test Compound in Microsomes • 1. Compound final concentration: 10 uM. • 2. Microsomes concentration 1 mg/mL. • 3. Incubate for 1 hour, with an NADPH regenerating system. • 4. 0.5 mL of incubation mixture at 0 min and 1 hour, mixed with 0.5 mL of acetonitrile. • 5. Vortex, and centrifuge at 13200 rpm for 10 min. • 6. Supernatant was transferred to a clean vial for LCMS analysis NADPH regenerating system (cofactor; consisting of NADP [0.340 mg/mL], G6P [1.56 mg/mL], and G6PDH [0.4 U/mL] solutions) LC-MS/MS Method: • HPLC Column: Agilent, Polaris 3 […], 150×2.0 mm (S/N: 533819), made in Netherlands. • Guard Column: Agilent, MonoChrom 3 C18 MetaGuard, 10×2.0 mm (S/N: 556145) • Column temperature: 40° C. • Mobile Phase A: 5 mM ammonium format in water (Optima) • Mobile Phase B: acetonitrile (Optima) • Flow rate: 0.2 mL/min • Gradient (Table on right) • MS: Thermo Q Exactive Plus.

[3] = system: Dog Microsomes; experiment: Metabolite screening of NPT-2042 in dog microsomes; format: in vitro ADME; conditions: NPT-2042 10 uM, microsomes 1 mg/mL, 1 hour, NADPH regenerating system
Experimental: as §1

[4] = system: Human Microsomes; experiment: Metabolite screening of NPT-2042 in human microsomes; format: in vitro ADME; conditions: NPT-2042 10 uM, microsomes 1 mg/mL, 1 hour, NADPH regenerating system
Experimental: as §1

[5] = system: Microsomes; experiment: Proposed metabolite structures and biotransformation pathways (rat, dog, human microsomes); format: in vitro ADME; conditions: for Proposed Biotransformation Pathway: metabolite of NPT-2042 in microsomes
Experimental: Incubation of Test Compound in Microsomes • 1. Compound final concentration: 10 uM. • 2. Microsomes concentration 1 mg/mL. • 3. Incubate for 1 hour, with an NADPH regenerating system. • 4. 0.5 mL of incubation mixture at 0 min and 1 hour, mixed with 0.5 mL of acetonitrile. • 5. Vortex, and centrifuge at 13200 rpm for 10 min. • 6. Supernatant was transferred to a clean vial for LCMS analysis NADPH regenerating system (cofactor; consisting of NADP [0.340 mg/mL], G6P [1.56 mg/mL], and G6PDH [0.4 U/mL] solutions)
LC-MS/MS Method: • HPLC Column: Agilent, Polaris 3 C18-A, 150×2.0 mm (S/N: 533819), made in Netherlands. • Guard Column: Agilent, MonoChrom 3 C18 MetaGuard, 10×2.0 mm (S/N: 556145) • Column temperature: 40° C. • Mobile Phase A: 5 mM ammonium format in water (Optima) • Mobile Phase B: acetonitrile (Optima) • Flow rate: 0.2 mL/min • Gradient (Table on right) • MS: Thermo Q Exactive Plus.
Summary of Proposed Metabolite Structures and Biotransformation Pathway

[6] = elderly, population-based control study; cited from earlier work
[7] = dose level 30 mg/kg NPT2042, Table 4
[8] = dose level 30 mg/kg NPT2042, Table 5

CCCCNc1cc(C(=O)O)cc(S(N)(=O)=O)c1Oc1ccccc1 [Bumetanide, bumetanide, reference compound]
Bumetanide concentration, Time 0.50 h [1, 7]: BQL
Bumetanide concentration, Time 1.00 h [1, 7]: BQL
Bumetanide concentration, Time 2.00 h [1, 7]: BQL
Bumetanide concentration, Time 4.00 h [1, 7]: BQL
Bumetanide concentration, Time 6.00 h [1, 7]: BQL
Bumetanide concentration, Time 8.00 h [1, 7]: BQL
Bumetanide concentration, Time 12.00 h [1, 7]: BQL
Bumetanide concentration, Time 24.00 h [1, 7]: BQL
Bumetanide concentration, Time 0.50 h [1, 8]: BQL
Bumetanide concentration, Time 1.00 h [1, 8]: BQL
Bumetanide concentration, Time 2.00 h [1, 8]: BQL
Bumetanide concentration, Time 4.00 h [1, 8]: BQL
Bumetanide concentration, Time 6.00 h [1, 8]: BQL
Bumetanide concentration, Time 8.00 h [1, 8]: BQL
Bumetanide concentration, Time 12.00 h [1, 8]: BQL
Bumetanide concentration, Time 24.00 h [1, 8]: BQL

Nc1cc(C(=O)NCc2ccccc2)cc(S(N)(=O)=O)c1Oc1ccccc1 [Example M1]
Rat Mic (MS Intensity) [2]: 1.28E+07
Dog Mic (MS Intensity) [3]: 2.95E+06
Human Mic (MS Intensity) [4]: 1.42E+06
Proposed Biotransformation Pathway [5]: De-alkylations

Nc1cc(C(=O)N(Cc2ccccc2)Cc2ccccc2)cc(S(N)(=O)=O)c1Oc1ccccc1 [Example M4]
Rat Mic (MS Intensity) [2]: 6.53E+07
Dog Mic (MS Intensity) [3]: 3.11E+07
Human Mic (MS Intensity) [4]: 2.52E+07
Proposed Biotransformation Pathway [5]: De-alkylation

CCCCNc1cc(C(=O)NCc2ccccc2)cc(S(N)(=O)=O)c1Oc1ccccc1 [Example M6]
Rat Mic (MS Intensity) [2]: 7.96E+07
Dog Mic (MS Intensity) [3]: 4.12E+07
Human Mic (MS Intensity) [4]: 3.25E+07
Proposed Biotransformation Pathway [5]: De-alkylation

O=C(O)Cc1ccccc1Nc1c(Cl)cccc1Cl [diclofenac, reference compound]
Metabolism of positive control ([5]; microsome incubation): showed Phase I metabolism

NS(=O)(=O)c1cc(C(=O)O)c(NCc2ccco2)cc1Cl [furosemide]
Protective factor for the development of epilepsy [6]: 39%
